Test results from publication PMC4703387, “Identification of the Calmodulin-Binding Domains of Fas Death Receptor” (PLoS ONE, 2016).
Read-outs that look alike come from different tables or passages of the source. Each block holds one substance with its values, some of them ahead of it. Where no end group is shown, it is not given here.

Experiments:
Ca^2+/CaM [1] = molecular target: T1, Ca^2+/CaM (Homo sapiens, UniProt P0DP23); details: reference not given; earlier FasDD study of the authors: ref [32]; read-out: Kd to Ca^2+/CaM, full-length FasDD; cited from earlier work
T1 construct: made in house
From the text: We have also shown that both lobes of Ca^2+/CaM are important for FasDD binding. […] Our attempt to identify the interaction regions by ... || To identify the Ca^2+/CaM-binding regions in large proteins is not a simple task. To predict the Ca^2+/CaM-binding site, a web-based tool is often used to provide favorable scores based on multiple criteria including hydropathy, α-helical propensity, hydrophobic residue content, residue charge, residue weight, helical class and occurrence of particular residues.[39] However, this method can still provide biased results.

Ca^2+/CaM [2] = molecular target: T1, Ca^2+/CaM; experiment: NMR titration (2D 1H-15N HSQC) of 15N-labeled Ca^2+/CaM with FasDD peptides; type: binding
Description: (§1) NMR data were collected at 35°C on a Bruker Avance II (700 MHz ^1H) spectrometer equipped with a cryogenic triple-resonance probe, processed with NMRPIPE [35] and analyzed with NMRVIEW [36] or CCPN Analysis. […] For signal assignments of the complexes, ^13C-, ^15N-, or ^13C-/^15N-labeled Ca^2+/CaM at ~400–500 μM was mixed with unlabeled Fas-Pep1 (in 100% DMSO-d6) or Fas-Pep2 at 1.5:1 peptide:Ca^2+/CaM. […] The backbone atom resonances of Ca^2+/CaM complexes with Fas-Pep1 and Fas-Pep2 were assigned using HNCA, HN(CO)CA, HNCACB, HNCO, HN(CO)CACB and ^15N-edited NOESY-HSQC and TOCSY-HSQC experiments. These experiments have been also collected on ^15N-, or ^13C-/^15N-labeled Fas-Pep2 in complex with unlabeled Ca^2+/CaM to confirm the α-helical character of Fas-Pep2 when bound to Ca^2+/CaM. The chemical shifts of Ca^2+/CaM-bound Fas-Pep2 were used to predict its order parameters and secondary structure content in TALOS+.[38] Combined ^1H-^15N chemical shift changes were calculated as ΔδHN = [(ΔδH)^2+(ΔδN/5)^2]^1/2, where ΔδH and ΔδN are the ^1H and ^15N chemical shift changes, respectively. Kd values were calculated by non-linear least-square fitting algorithm in Origin software (OriginLab, Northampton, MA) using the equation: ΔδHN=ΔδHN^max((Kd+L0+P0)−((Kd+L0+P0)^2−4*P0*L0)^0.5)/(2*P0) where ΔδHN^max is the chemical shift change between complex and free protein, L0 total concentration of ligand, and P0 total concentration of protein.
To gain insights into the molecular elements of Ca^2+/CaM–FasDD interaction and to identify the interaction interface, we have utilized NMR chemical shift perturbation (CSP) as detected in ^1H-^15N heteronuclear single quantum coherence (HSQC) spectra. These experiments not only allow for identification of residues involved in binding but can also provide information on the induced conformational changes within proteins. 2D ^1H-^15N HSQC data obtained for a uniformly ^15N-labeled Ca^2+/CaM upon titration with unlabeled Fas-Pep1 are shown in Fig 5. Addition of substoichiometric amounts of Fas-Pep1 (0.5:1 peptide:Ca^2+/CaM) led to a decrease in intensity for a significant number of ^1H-^15N resonances accompanied by appearance of several new signals, consistent with a slow exchange on the NMR scale between the free and bound forms of Ca^2+/CaM. A steady decrease in intensity for the original ^1H-^15N signals and increase in intensity of the new signals was clearly observed with further addition of Fas-Pep1. Spectral changes ceased upon completion of peptide titration at 1.5:1 Fas-Pep1:Ca^2+/CaM ratio when only the new set of signals was present (Fig 5). […]
Only residues 214–227 have been detected in the x-ray structure of Ca^2+/CaM bound to FasDD(214–238); no electron density has been detected for residues 228–238.[40] […]

Ca^2+/CaM [3] = molecular target: T1, Ca^2+/CaM; experiment: Isothermal titration calorimetry (ITC), Ca^2+/CaM titrated into peptide; type: binding; details: Ca^2+/CaM 450 μM into 25 μM Fas-Pep1 (25°C) or 195 μM into 17 μM Fas-Pep2 (35°C); 50 mM HEPES (pH 7.0), 100 mM NaCl, 5 mM CaCl2; single set of identical sites; three replicates typically
Description: Thermodynamic parameters of Ca^2+/CaM binding to Fas-Pep1 and Fas-Pep2 peptides were determined using an Auto-iTC200 microcalorimeter (Malvern Instruments). […] Heat of reaction of Ca^2+/CaM was measured over 19 injections at 25°C for Fas-Pep1 or 35°C for Fas-Pep2. Heat of dilution was measured by titrating Ca^2+/CaM into buffer. Data analysis was performed using the Microcal Origin package (ver. 8.1). Baseline corrections were performed by subtracting heat of dilution from the raw Ca^2+/CaM-peptide titration data. Binding curves were analyzed and dissociation constants (Kd) were determined by nonlinear least-square fitting of the baseline-corrected data. The formula used to fit the data as one binding site is: ΔQ(i)=Q(i)+(dVi/Vo)[(Q(i)+Q(i−1))/2]–Q(i–1) where ΔQ(i) is the heat released at i^th injection, Q(i) is the total heat content of the solution, dVi is injection volume, and Vo is total volume. Three replicate titration experiments were typically performed for each peptide.
Although it is recognized that the most frequent mechanism of CaM binding to target proteins involves the hydrophobic surfaces on the N- and C-terminal lobes,[23] electrostatic interactions also contribute to the formation and stabilization of CaM-protein complexes since CaM is acidic and CaM-binding motifs are often basic.[44, 45] The thermodynamic parameters of binding and the relative contribution of hydrophobic vs. electrostatic factors are often assessed by ITC methods, yielding various parameters such as dissociation constant (Kd), stoichiometry (n), enthalpy change (ΔH°) and entropy change (ΔS°). The thermodynamic parameters of Ca^2+/CaM binding to Fas-Pep1 and Fas-Pep2 were assessed by ITC.

Ca^2+/CaM-N = molecular target: T2, Ca^2+/CaM-N (Homo sapiens, UniProt P0DP23); experiment: NMR titration (2D 1H-15N HSQC) of isolated N-terminal lobe; type: binding; details: NMR HSQC titration, one-site model, 35°C, 50 mM Tris-d11 (pH 7.0), 100 mM NaCl, 5 mM CaCl2; 15N-Ca^2+/CaM-N 150 μM
T2 construct: ^15N-labled samples of the isolated Ca^2+/CaM-N and Ca^2+/CaM-C domains; made in house
Description: as §1, with “The chemical shifts of Ca^2+/CaM-bound Fas-Pep2 were used to predict its order parameters and secondary structure content in TALOS+.[38]” left out, “protein. […]” for “protein.”

Ca^2+/CaM-C = molecular target: T3, Ca^2+/CaM-C (Homo sapiens, UniProt P0DP23); experiment: NMR titration (2D 1H-15N HSQC) of isolated C-terminal lobe; type: binding; details: NMR HSQC titration, one-site model, 35°C, 50 mM Tris-d11 (pH 7.0), 100 mM NaCl, 5 mM CaCl2; 15N-Ca^2+/CaM-C 150 μM
T3 construct: ^15N-labled samples of the isolated Ca^2+/CaM-N and Ca^2+/CaM-C domains; made in house
Description: as §1, with “The chemical shifts of Ca^2+/CaM-bound Fas-Pep2 were used to predict its order parameters and secondary structure content in TALOS+.[38]” left out, “protein. […]” for “protein.”

Substance: FasDD: intracellular death domain of Fas
Kd (Ca^2+/CaM [1]): ~2 µM

NMR exchange regime with Ca^2+/CaM (Ca^2+/CaM [2]; 1H-15N HSQC, 15N-Ca^2+/CaM 100–150 μM, 35°C, pH 7.0): fast exchange
Substance: MTLSQVKGFVRKNGV [FasDD(224–238), synthetic FasDD peptide spanning residues 224–238; …]
binding to Ca^2+/CaM by CSPs (Ca^2+/CaM [2]; 1H-15N HSQC titration, 15N-Ca^2+/CaM 100 μM, 35°C, pH 7.0): Numerous ^1H-^15N signals exhibited significant CSPs in the HSQC spectra (S7 Fig), indicating direct binding | lobe preference on Ca^2+/CaM (Ca^2+/CaM [2]; 1H-15N HSQC, 15N-Ca^2+/CaM 100 μM): appears to bind to the C-terminal domain of Ca^2+/CaM

Kd (Ca^2+/CaM [3]): 0.3 µM | Kd (Ca^2+/CaM-N): ~268 µM | Kd (Ca^2+/CaM-C): 76 µM
Substance: SDVDLSKYITTIAGVMTLSQVKGFVRKNGVN [Fas-Pep1]
